Where “and” joins values, the source holds several entries; their conditions need not be identical. Identical values can stand only once. Like-named read-outs stand apart in the source and are kept apart here.
Biological target: beta1 (right auricle of rats, stimulated by isoprenaline) (Rattus norvegicus, UniProt P18090)
Details: for log (x - 1): Van Rossum's table; for Kb: agonist isoprenaline; for type of antagonism towards isoprenaline: simple displacement of curves to the right
[1] = antagonist concentration 10^-8 M
[2] = pA2 (overall), n = 11, all antagonist concentrations
[3] = pA2, single preparation, antagonist concentration 10^-8 M
[4] = antagonist concentration 3 × 10^-8 M
[5] = antagonist concentration 3 × 10^-9 M

beta1 (right auricle of rats, stimulated by isoprenaline), sequence (P18090 whole entry): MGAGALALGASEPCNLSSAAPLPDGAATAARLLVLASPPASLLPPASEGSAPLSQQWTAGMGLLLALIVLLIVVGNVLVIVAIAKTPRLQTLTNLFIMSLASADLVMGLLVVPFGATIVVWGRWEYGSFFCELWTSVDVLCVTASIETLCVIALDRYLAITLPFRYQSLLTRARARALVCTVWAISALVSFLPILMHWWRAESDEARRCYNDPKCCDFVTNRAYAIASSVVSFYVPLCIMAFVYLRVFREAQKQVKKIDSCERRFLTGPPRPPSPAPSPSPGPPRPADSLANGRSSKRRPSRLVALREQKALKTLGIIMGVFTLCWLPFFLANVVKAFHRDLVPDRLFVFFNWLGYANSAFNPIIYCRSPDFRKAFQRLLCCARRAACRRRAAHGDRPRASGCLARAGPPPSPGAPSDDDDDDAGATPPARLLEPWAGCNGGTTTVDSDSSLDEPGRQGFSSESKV

Question: What does the source list for CC(C)(C)NCC(O)COc1cccc2c1SCCC2O (centres unmarked) [Compound of the formula I, 1-tert.-butylamino-3-(4-hydroxy-8-thiochromanyloxy)-2-propanol]?
Answer: x (displacement of the curve) [1]: 37.5 mm and 38 mm and 31 mm; log (x - 1) [1]: 1.22 and 1.24 and 0.99; Kb [2]: 0.575 nM; Kb [3]: 0.603 nM and 0.575 nM and 1.02 nM; beta1-adrenolytic activity (pharmacological tests in vitro, in words): very high beta1 -adrenolytic activity; beta1-adrenolytic / beta1-antagonistic activity relative to tertatolol (relative to tertatolol): twice that of tertatolol; type of antagonism towards isoprenaline: competitive type

Question: Which results are given for CC(C)(C)NCC(O)COc1cccc2c1SCCC2 (centres unmarked) [Tertatolol, 1-tert.-butylamino-3-(8-thiochromanyloxy)-2-propanol]?
Answer: x (displacement of the curve) [4]: 35 mm and 32.5 mm; log (x - 1) [4]: 1.13 and 1.05; x (displacement of the curve) [5]: 25.5 mm and 27 mm and 19.5 mm; log (x - 1) [5]: 0.78 and 0.84 and 0.54; x (displacement of the curve) [1]: 41 mm and 46 mm and 47 mm; log (x - 1) [1]: 1.35 and 1.52 and 1.55; x (displacement of the curve) (antagonist concentration 10^-9 M): 6 mm and 7 mm and 3.5 mm; Kb [2]: 0.912 nM; Kb (pA2, single preparation, antagonist concentration 3 × 10^-8 M): 2.24 nM and 2.69 nM; Kb (pA2, single preparation, antagonist concentration 3 × 10^-9 M): 0.501 nM and 0.437 nM and 0.871 nM; Kb [3]: 0.447 nM and 0.302 nM and 0.282 nM; times more powerful than propanolol (relative to propanolol): 6 times; type of antagonism towards isoprenaline: competitive type

Source: US4703057A, “Beta-blocking thiochroman derivatives, compositions and method of use therefor” (ADIR Et Compagnie, priority 1985, dated 1987)
